Where two headings read alike, the source gives them in different places.
Tested on: HCMV TB40/E strain
Assay: Plaque reduction assay, HCMV TB40/E strain in human foreskin fibroblasts, single drugs and 2-drug combinations (Chou-Talalay)
Assay type: cell-based, human cytomegalovirus
Conditions: for Dose of drug alone at Fa 0.75: Fa 0.75, drug alone; for Dose of drug alone at Fa 0.9: Fa 0.9, drug alone; for Dose of drug alone at Fa 0.95: Fa 0.95, drug alone; for Dose of drug alone at Fa 0.97: Fa 0.97, drug alone; for Dose of drug alone at Fa 0.05: Fa (fraction of virus affected) 0.05, drug alone
Description: The CMV strain used was TB40/E. The CMV strain was propagated and tittered in human foreskin fibroblasts (HFF) cells. Cell-free virus stocks and cell-associated clinical isolates were maintained at -70° C. Viral stocks were tittered by serial 10-fold dilution in 24-well tissue culture plates containing HFF monolayers overlaid with agarose-medium. After incubation for 7 to 14 days, plaques were enumerated, and virus titer was determined as plaque forming units (PFU) per milliliter (ml). Stocks of artemisone (10 mM), ganciclovir (10 mM), BDCRB (120 mM), brincidofovir (1 mM), maribavir (10 mM) and letermovir (10 mM) were prepared in DMSO or H2O.
Cell monolayers were inoculated in 24-well culture plates with 0.2 ml of virus suspension containing 60 to 100 PFU per well. After adsorption for 60 -120 min at 37° C., the inoculum was removed, and culture medium was replaced with agarose-medium overlay containing serial concentrations of the tested drug(s). Plates were incubated for 7-14 days at 37° C. in a 5% CO2 incubator. Plaques were then counted microscopically.
The effect of a combination of artemisone with each one of ganciclovir (HCMV DNA polymerase), BDCRB (HCMV terminase inhibitor), brincidofovir (HCMV DNA polymerase inhibitor), maribavir (HCMV UL97 kinase inhibitor) and letermovir (HCMV terminase inhibitor) was evaluated by the classical plaque reduction assay. The in vitro activity of each of the above mentioned antiviral compounds alone or in combination with artemisone was evaluated by the classical plaque reduction assay, using HCMV TB40/E strain in human foreskin fibroblasts cells. The concentration of each antiviral compound that reduced the plaque formation by 50% (EC50) was determined as previously described in Wolf DG et al., J Clin Invest. 1995;95:257-63. The individual EC50 values in human foreskin fibroblasts were as follows: artemisone EC50 - 1 µM; ganciclovir EC50 - 1 µM; maribavir EC50 - 1 µM; BDCRB EC50 - 0.5 µM; letermovir EC50 - 5 nM; brincidofovir EC50 -1 nM.
For the 2-drug combination studies, the EC50 value of each drug was used to determine an equipotent ratio between the two compounds (EC50 of drug 1 / EC50 of drug 2). Serial 2-fold dilutions of a mixture comprising artemisone and another antiviral compound at initial concentrations equivalent to 4-fold the equipotent ratio were added to duplicate wells of cells infected with HCMV. Overall, 5 different concentrations of the drug combinations were used: 4xEC50, 2xEC50, 1xEC50,0.5xEC50,0.25xEC50. The cell monolayers were inoculated in 24-well culture plates with 0.2 ml of virus suspension containing 60 to 100 plaque-forming unit (PFU) per well; the Multiplicity of infection (MOI) was 0.001-0.002 PFU/cell).
D1 and D2 are the doses of the two drugs, and Dx is a dose causing to x% effect (LD0.5 is EC50). Briefly, the software extrapolated a combination index (CI) representing the interaction between the two drugs at specified levels of virus inhibition (that is 50%, 75%, 90%, 95%) versus the percentages of the inhibition induced by each drug alone and in combination (equation 16 in Chou).
A weighted average CI (CIwt) was then calculated for each combination as (CI50+ 2×CI75+3×CI90+4×CI95)/10, to access the drug combinatory effects.
The dose reduction index (DRI) was then calculated as described in Chou. In general, the DRI measures the fold of dose reduction of each drug in the combination at a given effect level compared with the doses of each drug alone. For each one of the below tables: Fa - fraction of virus affected; doses are provided in µm.

[1] = Human betaherpesvirus 5, Fibroblast, drug alone, human foreskin fibroblasts, read-out: EC50 (concentration that reduced the plaque formation by 50%)
[2] = Human betaherpesvirus 5, Fibroblast, Fa 0.5, drug alone, read-out: Dose of drug alone at Fa 0.5

Molecule: OC[C@H]1O[C@@H](n2c(Br)nc3cc(Cl)c(Cl)cc32)[C@H](O)[C@@H]1O [BDCRB, 2-bromo-5,6-dichloro-1-beta-D-ribofuranosyl benzimidazole]
- EC50 [1]: 500 nM

Molecule: Nc1ccn(C[C@@H](CO)OCP(=O)(O)O)c(=O)n1 [cidofovir]
- Dose of drug alone at Fa 0.75: 0.646 µm
- Dose of drug alone at Fa 0.9: 1.148 µm
- Dose of drug alone at Fa 0.95: 1.698 µm
- Dose of drug alone at Fa 0.97: 2.242 µm
- Dose of drug alone at Fa 0.05: 0.07783 µm
- EC50 [2]: 364 nM
- DRI (dose reduction index) (combination artemisone + cidofovir, Fa 0.05): 1.038
- DRI (dose reduction index) (combination artemisone + cidofovir, Fa 0.5): 1.757
- DRI (dose reduction index) (combination artemisone + cidofovir, Fa 0.75): 2.139
- DRI (dose reduction index) (combination artemisone + cidofovir, Fa 0.9): 2.6
- DRI (dose reduction index) (combination artemisone + cidofovir, Fa 0.9, listed as CDV): 2.603
- DRI (dose reduction index) (combination artemisone + cidofovir, Fa 0.95): 2.975
- DRI (dose reduction index) (combination artemisone + cidofovir, Fa 0.97): up to 3.27
- DRI (dose reduction index) (combination artemisone + cidofovir, Fa 0.97, listed as CDV): 3.271

Molecule: Nc1nc2c(ncn2COC(CO)CO)c(=O)[nH]1 [ganciclovir]
- Dose of drug alone at Fa 0.75: 1.113 µm
- Dose of drug alone at Fa 0.9: 2.12 µm
- Dose of drug alone at Fa 0.9 (listed as GCV): 2.121 µm
- Dose of drug alone at Fa 0.95: 3.287 µm
- Dose of drug alone at Fa 0.97: 4.491 µm
- Dose of drug alone at Fa 0.05: 0.1039 µm
- EC50 [2]: 584 nM
- EC50 [1]: 1000 nM
- DRI (dose reduction index) (combination artemisone + ganciclovir, Fa 0.05): 1.342
- DRI (dose reduction index) (combination artemisone + ganciclovir, Fa 0.5): 1.673
- DRI (dose reduction index) (combination artemisone + ganciclovir, Fa 0.75): 1.817
- DRI (dose reduction index) (combination artemisone + ganciclovir, Fa 0.9, listed as GCV): 1.973
- DRI (dose reduction index) (combination artemisone + ganciclovir, Fa 0.95): 2.09
- DRI (dose reduction index) (combination artemisone + ganciclovir, Fa 0.95, listed as GCV): 2.086
- DRI (dose reduction index) (combination artemisone + ganciclovir, Fa 0.97): 2.171

Molecule: COc1cccc(N2CCN(C3=Nc4c(F)cccc4[C@H](CC(=O)O)N3c3cc(C(F)(F)F)ccc3OC)CC2)c1 [letermovir]
- Dose of drug alone at Fa 0.75: 0.00438 µm
- Dose of drug alone at Fa 0.9: 0.00952 µm
- Dose of drug alone at Fa 0.95: 0.01614 µm
- Dose of drug alone at Fa 0.97: 0.02351 µm
- Dose of drug alone at Fa 0.05: 2.51E-4 µm
- EC50 [2]: 2.01 nM
- EC50 [1]: 5 nM
- DRI (dose reduction index) (combination artemisone + letermovir, Fa 0.05): 0.5226
- DRI (dose reduction index) (combination artemisone + letermovir, Fa 0.5): 1.044
- DRI (dose reduction index) (combination artemisone + letermovir, Fa 0.75): 1.351
- DRI (dose reduction index) (combination artemisone + letermovir, Fa 0.9): 1.75
- DRI (dose reduction index) (combination artemisone + letermovir, Fa 0.9, listed as Let): 1.749
- DRI (dose reduction index) (combination artemisone + letermovir, Fa 0.95): 2.084
- DRI (dose reduction index) (combination artemisone + letermovir, Fa 0.97): up to 2.4
- DRI (dose reduction index) (combination artemisone + letermovir, Fa 0.97, listed as Let): 2.362

Molecule: brincidofovir
- EC50 (Fa 0.5, drug alone, read-out: Dose of drug alone at Fa 0.5): 0.649 nM
- Dose of drug alone at Fa 0.75: 0.001 µm
- Dose of drug alone at Fa 0.9: 0.002 µm
- Dose of drug alone at Fa 0.95: 0.002 µm
- Dose of drug alone at Fa 0.97: 0.003 µm
- Dose of drug alone at Fa 0.05: 1.87E-4 µm
- DRI (dose reduction index) (combination artemisone + brincidofovir, Fa 0.05): 1.43
- DRI (dose reduction index) (combination artemisone + brincidofovir, Fa 0.5): 1.48
- DRI (dose reduction index) (combination artemisone + brincidofovir, Fa 0.75): 1.5
- DRI (dose reduction index) (combination artemisone + brincidofovir, Fa 0.9): up to 1.5
- DRI (dose reduction index) (combination artemisone + brincidofovir, Fa 0.9, listed as BCV): 1.52
- DRI (dose reduction index) (combination artemisone + brincidofovir, Fa 0.95): 1.53
- DRI (dose reduction index) (combination artemisone + brincidofovir, Fa 0.97): 1.54
- EC50 (drug alone, human foreskin fibroblasts, read-out: EC50 (concentration that reduced the plaque formation by 50%)): 1 nM

From patent US20230149418A1, “METHODS AND SYNERGIC COMPOSITIONS FOR TREATING VIRAL INFECTIONS” (HADASIT MEDICAL RESEARCH SERVICES AND DEVELOPMENT LTD., priority 2018, published 2023)
